Results published in patent US9868735B2, “Benzazepine ketone compounds as glycogen phosphorylase inhibitor, preparation method therefor, and medical uses” (CHENGDE MEDICAL UNIVERSITY, priority 2013, dated 2018).

Biological target: T1, rabbit muscle glycogen phosphorylase (GPa) (Oryctolagus cuniculus, UniProt P00489)
T1 sequence (P00489 2-843 limits assumed): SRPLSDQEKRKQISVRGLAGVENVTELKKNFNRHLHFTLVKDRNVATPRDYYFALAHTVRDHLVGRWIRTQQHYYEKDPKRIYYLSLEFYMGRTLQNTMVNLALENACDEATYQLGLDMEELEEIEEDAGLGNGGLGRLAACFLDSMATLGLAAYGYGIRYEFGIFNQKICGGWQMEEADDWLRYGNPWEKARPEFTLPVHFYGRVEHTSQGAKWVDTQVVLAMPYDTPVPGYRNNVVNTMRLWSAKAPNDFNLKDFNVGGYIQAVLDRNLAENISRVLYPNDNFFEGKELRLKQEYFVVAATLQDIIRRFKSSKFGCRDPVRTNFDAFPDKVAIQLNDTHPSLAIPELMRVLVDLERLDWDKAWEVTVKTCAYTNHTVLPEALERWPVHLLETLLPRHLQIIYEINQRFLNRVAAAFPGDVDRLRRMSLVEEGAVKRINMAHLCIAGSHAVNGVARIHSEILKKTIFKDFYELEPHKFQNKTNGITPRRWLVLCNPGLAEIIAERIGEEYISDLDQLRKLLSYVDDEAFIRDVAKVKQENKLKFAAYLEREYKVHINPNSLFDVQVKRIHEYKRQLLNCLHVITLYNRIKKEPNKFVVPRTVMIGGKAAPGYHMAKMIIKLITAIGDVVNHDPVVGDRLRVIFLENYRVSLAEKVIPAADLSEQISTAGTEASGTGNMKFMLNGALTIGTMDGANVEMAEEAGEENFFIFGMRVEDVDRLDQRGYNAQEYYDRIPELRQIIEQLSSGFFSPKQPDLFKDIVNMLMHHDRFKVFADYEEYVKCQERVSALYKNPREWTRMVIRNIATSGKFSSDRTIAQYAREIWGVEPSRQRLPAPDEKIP
Assay: Glycogen phosphorylase in vitro inhibitory activity assay
Assay type: biochemical
Settings: GPa 250 ng/100 μl, 30° C. 20 minutes, colorimetry at 655 nm
Experimental: Glycogen Phosphorylase In Vitro Inhibitory Activity Assay
Preparation of reagents: 1) preparation of color developing solution: 5 g of ammonium molybdate was weighed, dissolved in 500 ml of 1M HCl and stirred with a stirrer until completely dissolved. Then the mixture was added with 190 mg of malachite green with stirring until completely dissolved. The solution prepared was wrapped with an aluminum foil to protect it from exposure to light; 2) preparation of buffer: {circumflex over (1)} 0.5958 g of Hepes was precisely weighed and dissolved in 5 ml H2O. […]
Determination of dose-response curve of rabbit muscle glycogen phosphorylase activity: a dose-response curve was determined by reading OD values of various concentrations of GPa solutions at 655 nm after added with a color developing solution. The amount of GPa can be 250 ng as determined from the dose-response curve.
Experimental procedure: 1) designing PC (positive control), Blank (blank control), positive drug (caffeine); 2) adding 52 μl of reaction buffer; 3) adding the test compound to a final concentration; 4) adding 1 μl of enzyme to a final concentration of 250 ng/100 μl; 5) adding 150 μl of the color developing solution; 6) reacting at 30° C. for 20 minutes; 7) colorimetry determination at a wavelength of 655 nm; 8) reading data and calculating inhibitory activity: Inhibitory Activity=(PC−test sample)/(PC−Blank)

## O=C(Nc1ccc2c(c1)C(=O)NCCO2)c1cc2cc(Cl)ccc2[nH]1 [Example 1, 7-(5-Chloro-1H-indole-2-carboxamido)-3,4-dihydrobenzo[f][1,4]oxazepin-5(2H)-one]
  IC50: < 100 nM
